Patent publication US8129532B2, “Amino(oligo)thiophene dyes, preparation thereof, and optical methods of use” (The University of Connecticut, priority 2007, dated 2012)

Tests used:
[1] = One-photon fluorescence relative signal change per 100 mV; details: excitation / long-pass emission (nm) given
Description: The left-most data columns of Table 1 are the absorption and emission maxima for one photon fluorescence in soybean multi-lamellar lipid vesicles used to mimic the membrane environment. The column indicating relative signal change for one-photon fluorescence also lists the excitation light source used and the lower bounds of the long-pass emission detected.

[2] = One-photon absorption and emission spectra in multilamellar lipid vesicles, water and ethanol; assay type: physicochemical; details: for Absorbance MLV: multilamellar lipid vesicles; for 1PF Abs. Max / 1PF Em. Max: one photon, soybean multi-lamellar lipid vesicles
Description: […] The column indicating relative signal change for one-photon fluorescence also lists the excitation light source used and the lower bounds of the long-pass emission detected.
Absorption and emission spectra were obtained for a series of dyes with different acceptors: pyridinium (PY-1261), quinolinium (PY-212), and acridinium (PY-2240).

[3] = system: NIE-115 mouse neuroblastoma; experiment: Time-dependence (kinetics) of SHG and 2PF signal change after voltage-clamp step; assay type: cell-based; details: for SHG Kinetics (exponential time constant): time resolution 5 ms
Description: For full details of our non-linear imaging microscope, we refer the reader to previously published descriptions. A. C. Millard, P. J. Campagnola, W. Mohler, A. Lewis, and L. M. Loew, “Second Harmonic Imaging Microscopy,” Meth. Enzymol. 361, 47-69 (2003); Millard, A. C., L. Jin, and L. M. Loew, “Second Harmonic Generation Imaging Microscopy with a High Power Ultrafast Fiber Laser,”Commercial and Biomedical Applications of Ultrafast Lasers. 5714-5716, 92-98 (2005); A. C. Millard, L. Jin, M.-D. Wei, J. P. Wuskell, A. Lewis, and L. M. Loew, “Sensitivity of Second Harmonic Generation from Styryl Dyes to Transmembrane Potential,” Biophys. J. 86, 1169-1176 (2004). Our current microscope combines a Fluoview (Olympus) scan-head and an Axiovert (Zeiss) inverted microscope constructed for multiple imaging methodologies including wide-field, one-photon excitation fluorescence imaging, as well as SHG and 2PF imaging. Our laser sources include a Mira (Coherent) Ti:sapphire laser and a Femtopower (Fianium) fiber laser operating at 1064 nm. Millard, A. C., L. Jin, and L. M. Loew, “Second Harmonic Generation Imaging Microscopy with a High Power Ultrafast Fiber Laser,”Commercial and Biomedical Applications of Ultrafast Lasers. 5714-5716, 92-98 (2005). For excitation, we routinely use an IR-Achroplan (Zeiss) 40×, 0.8 NA water-immersion objective though for shorter wavelengths we also use an A-Plan (Zeiss) 40×, 0.65 NA air objective. Fluorescence is imaged (for linear imaging) or collected (for non-linear imaging) back through the excitation objective, while SHG is collected in the forward, transmitted light direction by a condenser, either 0.8 NA or 0.55 NA (Zeiss). For optimal collection, the numerical aperture of the condenser should be at least 1/√2 of the numerical aperture of the excitation objective (L. Moreaux, O. Sandre, S. Charpak, M. Blanchard-Desce, and J. Mertz, “Coherent Scattering in Multi-Harmonic Light Microscopy,” Biophys. J. 80, 1568-1574 (2001); L. Moreaux, O. Sandre, and J. Mertz. “Membrane Imaging by Second Harmonic Generation Microscopy,” J. Opt. Soc. Am. B. 17, 1685-1694 (2000)), though in practice a condenser of slightly lower numerical aperture will often suffice. Since the wavelength of second harmonic light is precisely half that of the excitation light, the choice of filter for SHG imaging is greatly simplified and the primary concern is the blocking of the excitation light that is also transmitted through the sample as well as fluorescence that is emitted forwards.
NIE-115 mouse neuroblastoma were cultured in DMEM with 10% fetal bovine serum and 1% antibiotic-antimycotic (Invitrogen, Carlsbad, Calif.) in a 60 mm plastic dish (353002, Becton Dickinson, Franklin Lakes, N.J.). The culture was maintained at 37° C. with 5% CO2 for a period of 48 hours prior to experimentation.
For experimentation the growth medium was replaced with 3 mL of Earle's Balanced Salt Solution (EBSS, Sigma, St. Louis, Mo.) with 20 mM HEPES (Merck Biosciences AG, Laufelfingen, Switzerland). The internal buffer, injected into the patch pipette, was a potassium aspartate (140 mM, Sigma, St. Louis, Mo.), sodium chloride (5 mM, Sigma, St. Louis, Mo.) and HEPES (10 mM) solution at a pH of 7.35. The pH was adjusted with potassium hydroxide and hydrochloric acid.
For characterizing the voltage-sensitivity of SHG and 2PF, we used a slow (˜0.1 Hz) switching protocol as previously described (A. C. Millard, P. J. Campagnola, W. Mohler, A. Lewis, and L. M. Loew, “Second Harmonic Imaging Microscopy,” Meth. Enzymol. 361, 47-69 (2003); Millard, A. C., L. Jin, and L. M. Loew, “Second Harmonic Generation Imaging Microscopy with a High Power Ultrafast Fiber Laser,” Commercial and Biomedical Applications of Ultrafast Lasers. 5714-5716, 92-98 (2005); A. C. Millard, L. Jin, M.-D. Wei, J. P. Wuskell, A. Lewis, and L. M. Loew, “Sensitivity of Second Harmonic Generation from Styryl Dyes to Transmembrane Potential,” Biophys. J. 86, 1169-1176 (2004)) with a 50 mV step. […]

Row | SMILES | 1PF Change (ΔF/F-100 mv) [1] | Absorbance ethanol [2] [nm] | Absorbance MLV [2] [nm] | 1PF Abs. Max [2] [nm] | 1PF Em. Max [2] [nm] | Absorbance water [2] [nm] | SHG kinetics, in words [3] | SHG Kinetics (exponential time constant) [3] [ms]
1 | CCN(CC)c1ccc(-c2ccc(/C=C/c3cc[n+](CCC[N+](CC)(CC)CC)cc3)s2)s1 [PY-1261, Di-2-BTEPPTEA] | 5.0E−002; 625/>715 ΔF/F-100 mv | 614 | 547 | 547 | 686 | 539 | instantaneous | 
2 | CCCN(CCC)c1ccc(-c2ccc(/C=C/c3cc[n+](CCC[N+](CC)(CC)CC)cc3)s2)s1 [PY-1286, Di-3-BTEPPTEA] | 1.8E−001; 640/>715 ΔF/F-100 mv | 616 | 547 | 547 | 692 | 567 | slower kinetic response | 27 ± 1
3 | CCCCN(CCCC)c1ccc(-c2ccc(/C=C/c3cc[n+](CCC[N+](CC)(CC)CC)cc3)s2)s1 [PY-1266, Di-4-BTEPPTEA] | 1.0E−001; 635/>715 ΔF/F-100 mv | 624 | 552 | 552 | 694 | 555 | slower kinetic response | 23 ± 2
